Measured values reported in patent US20250221410A1, “SUBSTITUTED 2-C-AZINES AND SALTS THEREOF, AND USE THEREOF AS HERBICIDAL ACTIVE SUBSTANCES” (BAYER AKTIENGESELLSCHAFT, priority 2022, published 2025).

Legend:
Assay type in all cases: in vivo
[1] = system: AMARE: Amaranthus retroflexus; test: Post-emergence herbicidal efficacy at 80 g/ha, AMARE; conditions: visual rating about 3 weeks after treatment vs untreated controls
How it was run: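 Sow in sandy loam and grow in the greenhouse for 2 to 3 weeks. Spray the green parts at the one-leaf stage with a WP or EC suspension or emulsion plus 0.5% additive at 600 l/ha water. Keep plants about 3 weeks, then score damage visually against controls.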

VERPE: Veronica persica [2] = test: Post-emergence herbicidal efficacy at 80 g/ha, VERPE; conditions: visual rating about 3 weeks after treatment vs untreated controls
Method: (§1) Seeds of monocotyledonous and dicotyledonous weeds and crop plants were placed in sandy loam in plastic or organic planting pots, covered with soil and cultivated in a greenhouse under controlled growth conditions. 2 to 3 weeks after sowing, the test plants were treated at the one-leaf stage. The compounds of the invention, formulated in the form of wettable powders (WP) or as emulsion concentrates (EC), were then sprayed onto the green parts of the plants as aqueous suspension or emulsion with addition of 0.5% additive at a water application rate of 600 l/ha (converted). After the test plants had been kept in the greenhouse under optimum growth conditions for about 3 weeks, the activity of the preparations was rated visually in comparison to untreated controls. For example, 100% activity=the plants have died, 0% activity=like control plants. Tables B1 to B10 below show the effects of selected compounds of the general formula (I) according to Table 1 on various harmful plants and an application rate corresponding to 80 g/ha, which were obtained by the experimental procedure mentioned above.

VIOTR: Viola tricolor = test: Post-emergence herbicidal efficacy at 80 g/ha, VIOTR; conditions: visual rating about 3 weeks after treatment vs untreated controls
Method: as §1

[3] = system: ABUTH: Abutilon theophrasti; test: Pre-emergence herbicide efficacy at 80 g/ha, ABUTH; conditions: scored visually after about 3 weeks
Excerpt: (§2) Seeds of monocotyledonous and dicotyledonous weed plants and crop plants were placed in plastic or organic planting pots and covered with soil. The compounds of the invention, formulated in the form of wettable powders (WP) or as emulsion concentrates (EC), were then applied to the surface of the covering soil as aqueous suspension or emulsion with addition of 0.5% additive at a water application rate equivalent to 600 l/ha. After the treatment, the pots were placed in a greenhouse and kept under good growth conditions for the test plants. After about 3 weeks, the efficacy of the preparations was scored visually in comparison with untreated controls as percentages. For example, 100% activity=the plants have died, 0% activity=like control plants. Tables D1 to D12 below show the effects of selected compounds of the general formula (I) according to Table 1 on various harmful plants and an application rate corresponding to 80 g/ha, which were obtained by the experimental procedure mentioned above.

[4] = system: AMARE: Amaranthus retroflexus; test: Pre-emergence herbicide efficacy at 80 g/ha, AMARE; conditions: scored visually after about 3 weeks
How it was run: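 Applied to the soil surface directly after sowing, before emergence, as an aqueous WP or EC preparation containing 0.5% additive. Percent efficacy was rated by eye about 3 weeks later in the greenhouse.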

[5] = system: DIGSA: Digitaria sanguinalis; test: Pre-emergence herbicide efficacy at 80 g/ha, DIGSA; conditions: scored visually after about 3 weeks
Excerpt: as §2

POLCO = test: Pre-emergence herbicide efficacy at 80 g/ha, POLCO; conditions: Polygonum convolvulus, scored visually after about 3 weeks
Excerpt: as §2

SETVI: Setaria viridis = test: Pre-emergence herbicide efficacy at 80 g/ha, SETVI; conditions: scored visually after about 3 weeks
Excerpt: as §2

VERPE: Veronica persica [6] = test: Pre-emergence herbicide efficacy at 80 g/ha, VERPE; conditions: scored visually after about 3 weeks
Excerpt: as §2

SMILES	Post-emergence efficacy against AMARE [1]	Post-emergence efficacy against VERPE (VERPE: Veronica persica [2])	Post-emergence efficacy against VIOTR (VIOTR: Viola tricolor)	Pre-emergence efficacy against ABUTH in % [3]	Pre-emergence efficacy against AMARE in % [4]	Pre-emergence efficacy against DIGSA in % [5]	Pre-emergence efficacy against POLCO in % (POLCO)	Pre-emergence efficacy against SETVI in % (SETVI: Setaria viridis)	Pre-emergence efficacy against VERPE in % (VERPE: Veronica persica [6])
Fc1ccc(Oc2ccccc2Cc2ncc(F)cn2)cc1 [Example 1-67]	100%	80%	100%	100%	90%				
Cc1cccc(Cc2ncc(Cl)cn2)c1Oc1ncc(Cl)cn1 [Example 1-166]					95%	100%	90%	80%	
Fc1cnc(Oc2c(F)cccc2Cc2ncc(Cl)cn2)nc1 [Example 1-152]	90%			80%	100%	90%	90%	80%	
Fc1ccc(Cc2c(F)cccc2Oc2ncc(Cl)cn2)nc1 [Example 1-194]	98%				100%	90%	90%	100%	90%
